Test results: BindingDB's records for patent US11149066 (Daiichi Sankyo, 2021)
Positions of bridges follow the written chain, without caps; N, C: chain ends. Residues, ends and D or L forms follow the SMILES beside them.

Molecular target: Thrombospondin-1 (Homo sapiens, UniProt P07996)
Assay: TSP1 inhibitory activity
Method: As referred to herein, the TSP1 inhibitory activity refers to the activity to inhibit one or more effects of TSP1, including angiostatic effect. The TSP1 inhibitory activity is measured by a cell adhesion inhibition assay using human TSP1 and vascular endothelial cells as described hereinbelow in the Examples section. In this assay, when the 50% inhibitory concentration (IC5O) of a test substance is 200 nM or less, the test substance is determined to have TSP1 inhibitory activity.

Chain of Thrombospondin-1 (P07996 whole entry): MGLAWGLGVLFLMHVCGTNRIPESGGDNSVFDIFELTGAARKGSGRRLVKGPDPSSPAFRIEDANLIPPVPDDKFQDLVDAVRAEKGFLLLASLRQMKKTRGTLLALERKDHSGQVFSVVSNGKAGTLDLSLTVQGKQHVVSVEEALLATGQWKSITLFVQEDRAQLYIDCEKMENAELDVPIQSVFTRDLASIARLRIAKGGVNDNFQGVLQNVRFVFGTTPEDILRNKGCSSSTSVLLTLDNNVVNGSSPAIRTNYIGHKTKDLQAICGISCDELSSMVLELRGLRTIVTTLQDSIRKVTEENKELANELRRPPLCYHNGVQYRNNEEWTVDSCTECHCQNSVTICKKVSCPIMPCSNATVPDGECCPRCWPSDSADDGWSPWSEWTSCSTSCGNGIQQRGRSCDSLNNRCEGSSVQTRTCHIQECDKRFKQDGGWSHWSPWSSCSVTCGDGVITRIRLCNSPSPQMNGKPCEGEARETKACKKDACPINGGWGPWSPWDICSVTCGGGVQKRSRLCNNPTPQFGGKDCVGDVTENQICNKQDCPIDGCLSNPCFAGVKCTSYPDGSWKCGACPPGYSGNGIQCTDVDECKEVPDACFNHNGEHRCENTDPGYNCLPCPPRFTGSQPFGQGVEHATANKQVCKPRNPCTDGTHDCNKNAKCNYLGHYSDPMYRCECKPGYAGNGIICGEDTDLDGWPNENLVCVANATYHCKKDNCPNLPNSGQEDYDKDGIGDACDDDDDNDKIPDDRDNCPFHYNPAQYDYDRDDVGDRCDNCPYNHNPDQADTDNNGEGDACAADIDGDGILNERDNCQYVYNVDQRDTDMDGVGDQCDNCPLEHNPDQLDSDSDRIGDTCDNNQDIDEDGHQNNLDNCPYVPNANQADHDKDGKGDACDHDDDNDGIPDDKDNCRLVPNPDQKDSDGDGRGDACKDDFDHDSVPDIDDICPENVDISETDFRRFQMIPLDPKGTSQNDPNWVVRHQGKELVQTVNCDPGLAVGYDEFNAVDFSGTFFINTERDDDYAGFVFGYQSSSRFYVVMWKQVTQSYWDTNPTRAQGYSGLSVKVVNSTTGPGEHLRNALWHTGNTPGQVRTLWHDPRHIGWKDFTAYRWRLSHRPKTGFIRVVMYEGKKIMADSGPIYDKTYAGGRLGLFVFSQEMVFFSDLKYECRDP

With `CC[C@H](C)[C@@H]1NC(=O)[C@H](Cc2ccccc2)NC(=O)CSC[C@@H](C(N)=O)NC(=O)[C@H](C(C)C)NC(=O)[C@H](Cc2c[nH]c3ccccc23)NC(=O)[C@H](CCCNC(=N)N)NC(=O)[C@H](C(C)C)NC(=O)[C@H](Cc2c[nH]c3ccccc23)NC(=O)[C@H](CC(N)=O)NC(=O)[C@H](CCCCN)NC(=O)CNC(=O)[C@H](CO)NC1=O` [US11149066, Compound 10] ({CH2CO}-FISGKNWVRWVC-NH2; thioether N-12) the Kd was 0.091 nM.
